Measured values taken from patent publication US10246448B2, “4-hydroxy-2-phenyl-1,3-thiazol-5-yl methanone derivatives as TRPM8 antagonists” (DOMPÉ FARMACEUTICI S.P.A., priority 2015, dated 2019).

Tested on: not listed separately
Assay: Metabolic stability in rat microsomes, Phase I assay
Assay type: in vitro ADME
Conditions: metabolic stability in rat microsomes
Description: Compounds 1, 2, 8 and 9 in duplicate were dissolved in DMSO and pre-incubated, at the final concentration of 1 μM, for 10 min at 37° C. in potassium phosphate buffer 50 mM pH 7.4, 3 mM MgCl2, with rat liver microsomes (Xenotech) at the final concentration of 0.5 mg/ml.
After the pre-incubation period, reactions were started by adding the cofactors mixture (NADP, Glc6P, Glc6P-DH in 2% Sodium bicarbonte); samples (50 μl) were taken at time 0, 10, 20, 30 and 60 min added to 150 μl of acetonitrile with Verapamil 0.02 μM as Internal Standard (IS) to stop the reaction. After centrifugation the supernatants were analysed by LC-MS/MS.
A control sample without cofactors was added in order to check the stability of test compounds in the matrix after 60 min. 7-Ethoxycoumarin and propranolol were added as reference standards.
With `O=C(c1sc(-c2cccc(F)c2)nc1O)N1CCCO1` [Example 1, [2-(3-fluorophenyl)-4-hydroxy-1,3-thiazol-5-yl](1,2-oxazolidin-2-yl)methanone] the “intrinsic clearance half-life (in words)” value was “highest intrinsic clearance half-life”. In the case of `O=C(c1sc(-c2ccccc2O)nc1O)N1CCCO1` [Example 2, [4-hydroxy-2-(2-hydroxyphenyl)-1,3-thiazol-5-yl](1,2-oxazolidin-2-yl)methanone], the “intrinsic clearance half-life (in words)” value is reported as “highest intrinsic clearance half-life”. For `O=C(c1sc(-c2ccccc2O)nc1O)N1CCCCO1` [Example 8, [4-hydroxy-2-(2-hydroxyphenyl)-1,3-thiazol-5-yl](1,2-oxazinan-2-yl)methanone], the “intrinsic clearance half-life (in words)” value was “highest intrinsic clearance half-life”. For `O=C(c1sc(-c2cccc(F)c2)nc1O)N1CCCCO1` [Example 9, [2-(3-fluorophenyl)-4-hydroxy-1,3-thiazol-5-yl](1,2-oxazinan-2-yl)methanone], the “intrinsic clearance half-life (in words)” value was “highest intrinsic clearance half-life”.

Same assay, conditions: pH 7.4; rat liver microsomes 0.5 mg/ml, compound 1 μM, NADP cofactors mixture, 37° C.; read-out: Metabolic Stability (t1/2, min) Phase1
Work on `O=C(c1sc(-c2cccc(F)c2)nc1O)N1CCCO1` [Example 1, [2-(3-fluorophenyl)-4-hydroxy-1,3-thiazol-5-yl](1,2-oxazolidin-2-yl)methanone] yielded a half-life at 1 μM of 185 min. `O=C(c1sc(-c2ccccc2O)nc1O)N1CCCO1` [Example 2, [4-hydroxy-2-(2-hydroxyphenyl)-1,3-thiazol-5-yl](1,2-oxazolidin-2-yl)methanone] gave a half-life at 1 μM of 97 min. `O=C(c1sc(-c2cccc(F)c2)nc1O)N1CCOC1` [Example 3, [2-(3-fluorophenyl)-4-hydroxy-1,3-thiazol-5-yl](1,3-oxazolidin-3-yl)methanone] gave a half-life at 1 μM of 78 min. In the case of `O=C(c1sc(-c2ccccc2O)nc1O)N1CCOC1` [Example 4, [4-hydroxy-2-(2-hydroxyphenyl)-1,3-thiazol-5-yl](1,3-oxazolidin-3-yl)methanone], the half-life at 1 μM is reported as 64 min. Compound `O=C(c1sc(-c2cccc(F)c2)nc1O)C1CCCO1` (centres unmarked) [Example 5, [2-(3-fluorophenyl)-4-hydroxy-1,3-thiazol-5-yl](oxolan-2-yl)methanone] has a half-life at 1 μM of 52 min. Compound `O=C(c1sc(-c2ccccc2O)nc1O)C1CCCO1` (centres unmarked) [Example 6, [4-hydroxy-2-(2-hydroxyphenyl)-1,3-thiazol-5-yl](oxolan-2-yl)methanone] has a half-life at 1 μM of 56 min. `O=C(c1sc(-c2cccc(F)c2)nc1O)N1CCCC1` [Example 7, [2-(3-fluorophenyl)-4-hydroxy-1,3-thiazol-5-yl](pyrrolidin-1-yl)methanone] showed a half-life at 1 μM of 46 min. For `O=C(c1sc(-c2ccccc2O)nc1O)N1CCCCO1` [Example 8, [4-hydroxy-2-(2-hydroxyphenyl)-1,3-thiazol-5-yl](1,2-oxazinan-2-yl)methanone], the half-life at 1 μM was 102 min. In the case of `O=C(c1sc(-c2cccc(F)c2)nc1O)N1CCCCO1` [Example 9, [2-(3-fluorophenyl)-4-hydroxy-1,3-thiazol-5-yl](1,2-oxazinan-2-yl)methanone], the half-life at 1 μM is reported as 98 min. In the case of `O=C(c1sc(-c2cccc(F)c2)nc1O)N1CCCOC1` [Example 10, [2-(3-fluorophenyl)-4-hydroxy-1,3-thiazol-5-yl](1,3-oxazinan-3-yl)methanone], the half-life at 1 μM is reported as 55 min. `O=C(c1sc(-c2ccccc2O)nc1O)N1CCCOC1` [Example 11, [4-hydroxy-2-(2-hydroxyphenyl)-1,3-thiazol-5-yl](1,3-oxazinan-3-yl)methanone] showed a half-life at 1 μM of 51 min.

Tested on: not listed separately
Assay: Metabolic stability in rat microsomes, Phase II assay
Assay type: in vitro ADME
Conditions: pH 7.4; rat liver microsomes 0.5 mg/mL, Alamethicin activated, UDPGA, compound 1 μM, 37° C.; read-out: Metabolic Stability (t1/2, min) Phase2
Description: Rat liver microsomes (0.5 mg/mL final conc.) were incubated in ice for 15 min in 50 mM potassium phosphate buffer pH 7.4, 3 mM MgCl2 and activated with Alamethicin 50 μg/mg microsomal protein. Samples were transferred at 37° C. and compounds 1, 2, 8 and 9, dissolved in DMSO, were added in duplicate at the final concentration of 1 μM. After 5 min, reaction is started by adding 25 μl of UDPGA (16.15 mg/ml in 0.2% Sodium Bicarbonate). Samples were taken at time 0, 10, 20, 30 and 60 min added to 150 μl of acetonitrile with Verapamil 0.02 uM as Internal Standard (IS) to stop the reaction. After centrifugation the supernatants were analysed by LC-MS/MS. 7-Hydroxycoumarin was added as reference standard.
Compound `O=C(c1sc(-c2cccc(F)c2)nc1O)N1CCCO1` [Example 1, [2-(3-fluorophenyl)-4-hydroxy-1,3-thiazol-5-yl](1,2-oxazolidin-2-yl)methanone] has a half-life at 1 μM of 120 min. In the case of `O=C(c1sc(-c2ccccc2O)nc1O)N1CCCO1` [Example 2, [4-hydroxy-2-(2-hydroxyphenyl)-1,3-thiazol-5-yl](1,2-oxazolidin-2-yl)methanone], the half-life at 1 μM is reported as 86 min. With `O=C(c1sc(-c2cccc(F)c2)nc1O)N1CCOC1` [Example 3, [2-(3-fluorophenyl)-4-hydroxy-1,3-thiazol-5-yl](1,3-oxazolidin-3-yl)methanone] the half-life at 1 μM was 55 min. With `O=C(c1sc(-c2ccccc2O)nc1O)N1CCOC1` [Example 4, [4-hydroxy-2-(2-hydroxyphenyl)-1,3-thiazol-5-yl](1,3-oxazolidin-3-yl)methanone] the half-life at 1 μM was 41 min. With `O=C(c1sc(-c2cccc(F)c2)nc1O)C1CCCO1` (centres unmarked) [Example 5, [2-(3-fluorophenyl)-4-hydroxy-1,3-thiazol-5-yl](oxolan-2-yl)methanone] the half-life at 1 μM was 45 min. `O=C(c1sc(-c2ccccc2O)nc1O)C1CCCO1` (centres unmarked) [Example 6, [4-hydroxy-2-(2-hydroxyphenyl)-1,3-thiazol-5-yl](oxolan-2-yl)methanone] showed a half-life at 1 μM of 33 min. `O=C(c1sc(-c2cccc(F)c2)nc1O)N1CCCC1` [Example 7, [2-(3-fluorophenyl)-4-hydroxy-1,3-thiazol-5-yl](pyrrolidin-1-yl)methanone] showed a half-life at 1 μM of 51 min. With `O=C(c1sc(-c2ccccc2O)nc1O)N1CCCCO1` [Example 8, [4-hydroxy-2-(2-hydroxyphenyl)-1,3-thiazol-5-yl](1,2-oxazinan-2-yl)methanone] the half-life at 1 μM was 43 min. In the case of `O=C(c1sc(-c2cccc(F)c2)nc1O)N1CCCCO1` [Example 9, [2-(3-fluorophenyl)-4-hydroxy-1,3-thiazol-5-yl](1,2-oxazinan-2-yl)methanone], the half-life at 1 μM is reported as 51 min. With `O=C(c1sc(-c2cccc(F)c2)nc1O)N1CCCOC1` [Example 10, [2-(3-fluorophenyl)-4-hydroxy-1,3-thiazol-5-yl](1,3-oxazinan-3-yl)methanone] the half-life at 1 μM was 46 min. `O=C(c1sc(-c2ccccc2O)nc1O)N1CCCOC1` [Example 11, [4-hydroxy-2-(2-hydroxyphenyl)-1,3-thiazol-5-yl](1,3-oxazinan-3-yl)methanone] showed a half-life at 1 μM of 50 min.

Molecular target: T1, human TRPM8 (Homo sapiens, UniProt Q7Z2W7)
T1 sequence (Q7Z2W7 whole entry): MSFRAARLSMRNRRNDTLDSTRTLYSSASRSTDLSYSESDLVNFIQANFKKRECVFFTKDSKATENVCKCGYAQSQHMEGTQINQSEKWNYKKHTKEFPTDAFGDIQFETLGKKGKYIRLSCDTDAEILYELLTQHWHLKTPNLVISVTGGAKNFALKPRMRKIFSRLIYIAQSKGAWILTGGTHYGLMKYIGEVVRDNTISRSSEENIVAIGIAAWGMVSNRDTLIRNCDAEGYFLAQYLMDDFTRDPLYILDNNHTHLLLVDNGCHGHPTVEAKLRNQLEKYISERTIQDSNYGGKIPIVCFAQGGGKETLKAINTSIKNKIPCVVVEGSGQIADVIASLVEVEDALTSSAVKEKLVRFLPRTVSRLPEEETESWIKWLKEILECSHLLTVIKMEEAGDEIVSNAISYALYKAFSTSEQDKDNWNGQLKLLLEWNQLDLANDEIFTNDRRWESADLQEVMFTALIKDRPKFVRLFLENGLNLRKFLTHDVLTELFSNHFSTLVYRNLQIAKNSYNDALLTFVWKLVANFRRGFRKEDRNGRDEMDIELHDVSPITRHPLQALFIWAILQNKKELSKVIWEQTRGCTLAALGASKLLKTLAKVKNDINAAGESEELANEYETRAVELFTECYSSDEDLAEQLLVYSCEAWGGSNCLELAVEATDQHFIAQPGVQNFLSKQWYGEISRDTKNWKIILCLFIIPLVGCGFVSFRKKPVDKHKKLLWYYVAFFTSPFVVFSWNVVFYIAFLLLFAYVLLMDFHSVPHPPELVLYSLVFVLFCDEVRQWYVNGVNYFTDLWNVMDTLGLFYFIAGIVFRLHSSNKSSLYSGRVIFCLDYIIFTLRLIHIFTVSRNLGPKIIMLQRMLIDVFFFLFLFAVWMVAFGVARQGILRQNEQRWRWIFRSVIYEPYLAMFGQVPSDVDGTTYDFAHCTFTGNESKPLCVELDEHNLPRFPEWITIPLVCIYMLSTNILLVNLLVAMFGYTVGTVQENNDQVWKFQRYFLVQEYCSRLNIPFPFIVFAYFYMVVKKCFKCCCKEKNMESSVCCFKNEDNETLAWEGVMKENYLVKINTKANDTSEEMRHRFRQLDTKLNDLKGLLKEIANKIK
Assay: In vitro TRPM8 assay: intracellular calcium levels, Ca2+ sensitive fluorescent dye (FLIPR), agonist Icilin or Cooling Agent 10
Assay type: cell-based
Parameters: expressed in transfected cells
Conditions: HEK-293 cells stably expressing human TRPM8; agonist Cooling Agent 10 at EC80; read-out: Ca2+ (IC50 μM) Cool 10
Description: The TRPM8 antagonistic activity of all 26 compounds was determined by measuring changes in intracellular calcium levels using a Ca^+2 sensitive fluorescent dye. The experiments were performed using HEK-293 cells stably expressing the human TRPM8. Cells were seeded 10000 cells/well in 384 plates coated by Poly-D-Lysine MATRIX black/clear bottom (Thermo Scientific, Waltham, Mass. USA) in complete medium and grown overnight at 37° C., 5% CO2. 24 h after seeding, cell culture media was removed, cells were washed with Tyrode's assay buffer and then loaded with the fluorescent Ca^+2 indicator Fluo-4 NW dye (Molecular Probes, Life Technologies, Paisley, UK) supplemented with water-soluble Probenecid (Molecular Probes). Dye loaded cell plates were incubated for 1 h at room temperature. The compounds or vehicle were added and the kinetic response was monitored by a fluorimetric imaging plate ([…]; Molecular Devices, Sunnyvale, Calif., USA) over a period of five minutes (300 seconds). A second injection 5 minutes later of the reference agonist Cooling Agent 10 or Icilin at EC80 concentration was performed. The signal of the emitted fluorescence was recorded during additional three minutes. Data were analyzed by Spotfire DecisionSite version 9.1.1. The bioactivity exerted by the compounds or vehicle was expressed as a percent inhibition and IC50 values were then calculated.
`O=C(c1sc(-c2ccccc2O)nc1O)N1CCCO1` [Example 2, [4-hydroxy-2-(2-hydroxyphenyl)-1,3-thiazol-5-yl](1,2-oxazolidin-2-yl)methanone] showed an IC50 of 0.011 µM. With `O=C(c1sc(-c2ccccc2O)nc1O)N1CCOC1` [Example 4, [4-hydroxy-2-(2-hydroxyphenyl)-1,3-thiazol-5-yl](1,3-oxazolidin-3-yl)methanone] the IC50 was 0.104 µM. `O=C(c1sc(-c2cccc(F)c2)nc1O)C1CCCO1` (centres unmarked) [Example 5, [2-(3-fluorophenyl)-4-hydroxy-1,3-thiazol-5-yl](oxolan-2-yl)methanone] showed an IC50 of 0.326 µM. Compound `O=C(c1sc(-c2ccccc2O)nc1O)C1CCCO1` (centres unmarked) [Example 6, [4-hydroxy-2-(2-hydroxyphenyl)-1,3-thiazol-5-yl](oxolan-2-yl)methanone] has an IC50 of 0.401 µM. In the case of `O=C(c1sc(-c2cccc(F)c2)nc1O)N1CCCC1` [Example 7, [2-(3-fluorophenyl)-4-hydroxy-1,3-thiazol-5-yl](pyrrolidin-1-yl)methanone], the IC50 is reported as 1.36 µM. `O=C(c1sc(-c2cccc(F)c2)nc1O)N1CCCCO1` [Example 9, [2-(3-fluorophenyl)-4-hydroxy-1,3-thiazol-5-yl](1,2-oxazinan-2-yl)methanone] gave an IC50 of 0.167 µM. Work on `O=C(c1sc(-c2cccc(F)c2)nc1O)N1CCCOC1` [Example 10, [2-(3-fluorophenyl)-4-hydroxy-1,3-thiazol-5-yl](1,3-oxazinan-3-yl)methanone] yielded an IC50 of 0.256 µM. Compound `O=C(c1sc(-c2ccccc2O)nc1O)N1CCCOC1` [Example 11, [4-hydroxy-2-(2-hydroxyphenyl)-1,3-thiazol-5-yl](1,3-oxazinan-3-yl)methanone] has an IC50 of 0.281 µM.

Same assay, conditions: HEK-293 cells stably expressing human TRPM8; agonist Icilin at EC80; read-out: Ca2+ (IC50 μM) Icilin
With `O=C(c1sc(-c2ccccc2O)nc1O)N1CCCO1` [Example 2, [4-hydroxy-2-(2-hydroxyphenyl)-1,3-thiazol-5-yl](1,2-oxazolidin-2-yl)methanone] the IC50 was 0.012 µM. With `O=C(c1sc(-c2ccccc2O)nc1O)N1CCOC1` [Example 4, [4-hydroxy-2-(2-hydroxyphenyl)-1,3-thiazol-5-yl](1,3-oxazolidin-3-yl)methanone] the IC50 was 0.122 µM. `O=C(c1sc(-c2cccc(F)c2)nc1O)C1CCCO1` (centres unmarked) [Example 5, [2-(3-fluorophenyl)-4-hydroxy-1,3-thiazol-5-yl](oxolan-2-yl)methanone] gave an IC50 of 0.362 µM. For `O=C(c1sc(-c2ccccc2O)nc1O)C1CCCO1` (centres unmarked) [Example 6, [4-hydroxy-2-(2-hydroxyphenyl)-1,3-thiazol-5-yl](oxolan-2-yl)methanone], the IC50 was 0.452 µM. With `O=C(c1sc(-c2cccc(F)c2)nc1O)N1CCCC1` [Example 7, [2-(3-fluorophenyl)-4-hydroxy-1,3-thiazol-5-yl](pyrrolidin-1-yl)methanone] the IC50 was 1.56 µM. `O=C(c1sc(-c2cccc(F)c2)nc1O)N1CCCCO1` [Example 9, [2-(3-fluorophenyl)-4-hydroxy-1,3-thiazol-5-yl](1,2-oxazinan-2-yl)methanone] showed an IC50 of 0.123 µM. With `O=C(c1sc(-c2cccc(F)c2)nc1O)N1CCCOC1` [Example 10, [2-(3-fluorophenyl)-4-hydroxy-1,3-thiazol-5-yl](1,3-oxazinan-3-yl)methanone] the IC50 was 0.231 µM. With `O=C(c1sc(-c2ccccc2O)nc1O)N1CCCOC1` [Example 11, [4-hydroxy-2-(2-hydroxyphenyl)-1,3-thiazol-5-yl](1,3-oxazinan-3-yl)methanone] the IC50 was 0.256 µM.

Molecular target: T1, human TRPM8
Assay: In vitro cold stimulation assay
Conditions: not given
Work on `O=C(c1sc(-c2ccccc2O)nc1O)N1CCCO1` [Example 2, [4-hydroxy-2-(2-hydroxyphenyl)-1,3-thiazol-5-yl](1,2-oxazolidin-2-yl)methanone] yielded an IC50 of 5.5 nM. With `O=C(c1sc(-c2ccccc2O)nc1O)N1CCOC1` [Example 4, [4-hydroxy-2-(2-hydroxyphenyl)-1,3-thiazol-5-yl](1,3-oxazolidin-3-yl)methanone] the IC50 was 39 nM. `O=C(c1sc(-c2cccc(F)c2)nc1O)C1CCCO1` (centres unmarked) [Example 5, [2-(3-fluorophenyl)-4-hydroxy-1,3-thiazol-5-yl](oxolan-2-yl)methanone] gave an IC50 of 124 nM. Compound `O=C(c1sc(-c2ccccc2O)nc1O)C1CCCO1` (centres unmarked) [Example 6, [4-hydroxy-2-(2-hydroxyphenyl)-1,3-thiazol-5-yl](oxolan-2-yl)methanone] has an IC50 of 230 nM. In the case of `O=C(c1sc(-c2cccc(F)c2)nc1O)N1CCCC1` [Example 7, [2-(3-fluorophenyl)-4-hydroxy-1,3-thiazol-5-yl](pyrrolidin-1-yl)methanone], the IC50 is reported as 1230 nM. For `O=C(c1sc(-c2cccc(F)c2)nc1O)N1CCCCO1` [Example 9, [2-(3-fluorophenyl)-4-hydroxy-1,3-thiazol-5-yl](1,2-oxazinan-2-yl)methanone], the IC50 was 8 nM. Compound `O=C(c1sc(-c2cccc(F)c2)nc1O)N1CCCOC1` [Example 10, [2-(3-fluorophenyl)-4-hydroxy-1,3-thiazol-5-yl](1,3-oxazinan-3-yl)methanone] has an IC50 of 102 nM. With `O=C(c1sc(-c2ccccc2O)nc1O)N1CCCOC1` [Example 11, [4-hydroxy-2-(2-hydroxyphenyl)-1,3-thiazol-5-yl](1,3-oxazinan-3-yl)methanone] the IC50 was 106 nM.
